Eight compounds from patent EP0326331B1, “Substituted quinolines and cinnolines” (Dow AgroSciences LLC, priority 1988, dated 1989) can be followed below.

Assay type in all cases: in vivo
For assay [1], the system named is melon aphids (Aphis gossypii Glover). Kind of assay: Mite/insect screen, MA. The settings on record: Aphis gossypii, foliar, percent mortality, foliar spray on squash, read-out: MA RESULTS %; for mortality at 200 ppm: rate 200 ppm; for mortality at 400 ppm: rate 400 ppm. An outline of the steps:
(§1)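 Read-out: percent mortality after standard exposure periods. Test solutions were water dilutions of compound dissolved in acetone/alcohol (50:50) with emulsifier blends; leaves were sprayed to runoff on both surfaces and air-dried for one hour before exposure.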

Assay [2] concerns Botrytis cinerea (gray mold). Nature of the assay: Test 1 greenhouse foliar spray screen, gray mold on grape berries. The following applies: Botrytis cinerea, foliar; Test 1, spray on grape berries; disease control rating at 400 ppm / 100 ppm.
Assay [3] deals with Pyricularia oryzae (rice blast). Nature of the assay: whole plant or invertebrate. The settings on record: for pest or weed control at 400 ppm: Pyricularia oryzae, foliar, read-out: RICE BLAST, Test 1, foliar spray on rice, disease control rating at 400 ppm / 100 ppm.
In assay [4] the test system is Venturia inaequalis (apple scab). Nature of the assay: Test 1 greenhouse foliar spray screen, apple scab on apple seedling. The settings on record: Venturia inaequalis; Test 1, foliar spray on apple seedling; disease control rating at 400 ppm / 100 ppm; read-out: APPL SCAB.
For assay [5], the system named is Cercospora beticola (leaf spot). Nature of the assay: Test 1 greenhouse foliar spray screen, leaf spot on sugar beet. The following applies: Cercospora beticola; Test 1, foliar spray on sugar beet; disease control rating at 400 ppm / 100 ppm.
Assay [6] concerns southern armyworm (Spodopetra eridania Cramer). Kind of assay: Mite/insect screen, SAW. The settings on record: Spodoptera eridania, foliar, percent mortality, foliar spray on squash, read-out: SAW RESULTS %; for mortality at 200 ppm: rate 200 ppm; for mortality at 400 ppm: rate 400 ppm. In short, it runs like this:
as §1

A further assay deals with corn rootworm. Nature of the assay: Mite/insect screen, CRW. The following applies: percent mortality, read-out: CRW RESULTS %; for mortality at 12 ppm: CRW rate 12.00 ppm; for mortality at 24 ppm: CRW rate 24.00 ppm. An outline of the steps:
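Read-out: % mortality after standard exposure. Formulation: acetone/alcohol (50:50) with emulsifiers at 23 g and 13 g per liter, water-diluted to final test levels.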

Assay [7] has as its system Pseudoperonospora cubensis (downy mildew). Kind of assay: Test 1 greenhouse foliar spray screen, downy mildew on squash. The following applies: Pseudoperonospora cubensis, foliar, Test 1, foliar spray on squash; disease control rating at 400 ppm / 100 ppm; read-out: DOWN MDEW.
Assay [8] has as its system Twospotted spider mites (Tetranychus urticae Koch). Kind of assay: Mite/insect screen, SM. The settings on record: for mortality at 200 ppm / mortality at 400 ppm: Tetranychus urticae, foliar, percent mortality, foliar spray on squash, read-out: SM RESULTS %; for mortality at 200 ppm: rate 200 ppm; for mortality at 400 ppm: rate 400 ppm; for activity as miticides: summary statement in the description. An outline of the steps: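 Foliar spray to runoff (10 psi), 1 h drying; aqueous dilutions from acetone/alcohol emulsifier stock. Mortality (%) after standard exposure.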

The subject of assay [9] is Puccinia recondita tritici (leaf rust). Kind of assay: Test 1 greenhouse foliar spray screen, leaf rust on wheat. The following applies: Puccinia recondita, foliar, Test 1, foliar spray on wheat; disease control rating at 400 ppm / 100 ppm.
Assay [10] has as its system Erysiphe graminis tritici (powdery mildew). Nature of the assay: Test 1 greenhouse foliar spray screen, powdery mildew on wheat. The settings on record: Blumeria graminis, foliar, Test 1, foliar spray on wheat; disease control rating at 400 ppm / 100 ppm; read-out: POWD MDEW.
Assay [11] concerns Septoria tritici (leaf blotch). Kind of assay: Test 1 greenhouse foliar spray screen, leaf blotch on wheat. The settings on record: Zymoseptoria tritici; Test 1, foliar spray on wheat; disease control rating at 400 ppm / 100 ppm; read-out: LEAF BLOT.

As to `Fc1cccc2c(OCCc3cccs3)ccnc12` [Example 246, 8-fluoro-4-[2-(2-thienyl)ethoxy]quinoline], the mortality at 200 ppm in assay [1], in assay [6] and in [8] was 0% throughout. Moreover, the pest or weed control at 400 ppm in assay [2] was 0 to 19%; in assay [3], 90 to 100%; in [4], 90 to 100%; in [5] it was 20 to 89%; in assay [7], 90 to 100%; in assay [9], 90 to 100%. Moreover, the pest or weed control at 400 ppm in [10] and in assay [11] was 90 to 100% each time. Further, in the assay with corn rootworm, the mortality at 12 ppm came to 0%.
On to `Fc1cccc2c(OCCc3ccc4ccccc4c3)ccnc12` [Example 247, 8-fluoro-4-[2-(2-naphthyl)ethoxy]quinoline], for which the mortality at 200 ppm stood at 0% in [1], 20% in assay [6] and 90% in [8]. For the same compound, the mortality at 400 ppm in [1] was 0%; in assay [6] it was 50%; in [8], 0%. Besides, the pest or weed control at 400 ppm was 0 to 19% in assay [2]; 90 to 100% in assay [3]; 0 to 19% in [4]; 0 to 19% in assay [5]; 20 to 89% in assay [7]; 90 to 100% in [9]. Moreover, the pest or weed control at 400 ppm in assay [10] and in assay [11] was 90 to 100% in each case. Also, the “activity against rice blast” value in assay [3] (summary statement in the description) is “particularly excellent activity”. Besides, the mortality at 12 ppm in the assay on corn rootworm is 0%. Further, in the assay with corn rootworm, the mortality at 24 ppm turned out to be 0%. Also, the activity as miticides result in assay [8] is listed as “particularly excellent activity”.
As for `Cc1ccc(CCOc2ccnc3c(OCCc4ccc(C)cc4)cccc23)cc1` [Example 251, 4,8-bis[2-(4-methylphenyl)ethoxy]quinoline], the mortality at 200 ppm in [1], in assay [6] and in assay [8] was 0% each time. The pest or weed control at 400 ppm in assay [2] was in the range of 0 to 19%; in assay [3], 20 to 89%; in assay [4] it was 0 to 19%; in assay [5], 0 to 19%; in assay [7] it was 20 to 89%; in assay [9], 0 to 19%. Moreover, the pest or weed control at 400 ppm in assay [10] and in assay [11] was 0 to 19% throughout. Further, in the assay on corn rootworm, the mortality at 12 ppm was 0%.
On to `c1ccc(CCCc2ccnc3ccccc23)cc1` [Example 252, 4-(3-phenylpropyl)quinoline], for which the figures for the mortality at 200 ppm in [1], in assay [6] and in [8] were 100%, 0% and 90%, respectively. The mortality at 400 ppm came to 100% in assay [1], 0% in assay [6] and 90% in assay [8]. Also, the pest or weed control at 400 ppm in assay [2] was 0 to 19%; in assay [3], 90 to 100%; in assay [4], 20 to 89%; in assay [5] it was 0 to 19%; in assay [7], 90 to 100%; in [9], 90 to 100%. The pest or weed control at 400 ppm in assay [10] was in the range of 90 to 100%; in assay [11] it was 20 to 89%. Further, in the assay with corn rootworm, the mortality at 12 ppm is 0%. For the same compound, the mortality at 24 ppm in the assay with corn rootworm was 0%.
For `Fc1cccc2c(CCCc3ccccc3)ccnc12` [Example 253, 8-fluoro-4-(3-phenylpropyl)quinoline], the mortality at 200 ppm in [1] was found to be 90%; in assay [6], 0%; in assay [8] it was 100%. Moreover, the results for the mortality at 400 ppm in assay [1], in [6] and in [8] were 100%, 0% and 100%, respectively. Moreover, the pest or weed control at 400 ppm in [2] was 0 to 19%; in assay [3] it was 90 to 100%; in assay [4], 90 to 100%; in assay [5] it was 20 to 89%; in assay [7], 90 to 100%; in assay [9], 90 to 100%. In addition, the pest or weed control at 400 ppm in assay [10] lay in the range of 90 to 100%; in assay [11], 20 to 89%. Further, the mortality at 12 ppm in the assay on corn rootworm amounted to 0%. Moreover, in the assay with corn rootworm, the mortality at 24 ppm is 0%. Also, the activity as miticides result in [8] is on record as “particularly excellent activity”.
As to `Cc1ccc(CCCc2ccnc3c(F)cccc23)cc1` [Example 258, 8-fluoro-4-[3-(4-methylphenyl)propyl]quinoline], the figures for the mortality at 400 ppm in assay [1], in assay [6] and in assay [8] were 100%, 0% and 90%, respectively. The pest or weed control at 400 ppm in assay [2] fell in the range of 0 to 19%; in assay [3] it was 90 to 100%; in assay [4] it was 0 to 19%; in assay [5], 20 to 89%; in [7], 90 to 100%; in [9], 90 to 100%. Also, the results for the pest or weed control at 400 ppm in [10] and in [11] were 90 to 100% and 20 to 89%, respectively. Moreover, in the assay with corn rootworm, the mortality at 24 ppm worked out at 0%. Also, in assay [8], the activity as miticides entry is “particularly excellent activity”.
In the case of `Fc1cccc2c(CCCc3cccc(C(F)(F)F)c3)ccnc12` [Example 259, 8-fluoro-4-[3-[3-(trifluoromethyl)phenyl]propyl]quinoline], the mortality at 200 ppm was determined as 90% in assay [1], 0% in [6] and 100% in assay [8]. Besides, the mortality at 400 ppm is 80% in assay [1], 0% in [6] and 80% in assay [8]. The pest or weed control at 400 ppm in [2] lay in the range of 20 to 89%; in assay [3] it was 90 to 100%; in assay [4], 90 to 100%; in assay [5], 0 to 19%; in [7], 90 to 100%; in [9], 90 to 100%. Further, the pest or weed control at 400 ppm in assay [10] was 20 to 89%; in [11], 90 to 100%. In addition, in the assay with corn rootworm, the mortality at 12 ppm came out at 0%. For the same compound, the mortality at 24 ppm with corn rootworm is 0%. Further, in [8], the activity as miticides entry is listed as “particularly excellent activity”.
Take `Fc1cccc2c(CCCc3ccc(Cl)cc3)ccnc12` [Example 261, 4-[3-(4-chlorophenyl)propyl]-8-fluoroquinoline]: the mortality at 200 ppm in assay [1] worked out at 100%; in assay [6] it was 100%; in assay [8], 90%. The mortality at 400 ppm was 100% in [1], 80% in [6] and 50% in assay [8]. The pest or weed control at 400 ppm in [2] was 0 to 19%; in assay [3], 20 to 89%; in assay [4] it was 20 to 89%; in [5], 0 to 19%; in [7] it was 20 to 89%; in assay [9], 90 to 100%. Further, the pest or weed control at 400 ppm in [10] and in [11] was 20 to 89% in each case. The mortality at 12 ppm in the assay with corn rootworm was 0%. Further, in the assay with corn rootworm, the mortality at 24 ppm is 100%.
